System: PC-3-KQ and PC-3-KR cells
Experiment: RNA-sequencing and differential gene expression
Type: cell-based, human
Settings: RNA-Seq, PC-3-KQ cells

For `CC(=O)Oc1ccccc1C(=O)Nc1ncc([N+](=O)[O-])s1` [Nitazoxanide], the “BDKRB2 Change (KQ-Control vs KQ-NTZ)” value was “DOWN”, the “BDKRB2 logFC (KQ-Control vs KQ-NTZ)” value was -1.3479 and the “BRINP2 Change (KQ-Control vs KQ-NTZ)” value was “DOWN”. The “BRINP2 logFC (KQ-Control vs KQ-NTZ)” value was -0.6846, the “BTBD11 Change (KQ-Control vs KQ-NTZ)” value was “DOWN” and the “BTBD11 logFC (KQ-Control vs KQ-NTZ)” value was -1.0629. For the same molecule, the “C2orf78 Change (KQ-Control vs KQ-NTZ)” value was “DOWN”, the “C2orf78 logFC (KQ-Control vs KQ-NTZ)” value was -0.8606 and the “CACNG8 Change (KQ-Control vs KQ-NTZ)” value was “DOWN”. For the same molecule, the “CACNG8 logFC (KQ-Control vs KQ-NTZ)” value was -1.0729, the “CAPSL Change (KQ-Control vs KQ-NTZ)” value was “DOWN” and the “CAPSL logFC (KQ-Control vs KQ-NTZ)” value was -0.8068. For the same molecule, the “CD14 Change (KQ-Control vs KQ-NTZ)” value was “DOWN”, the “CD14 logFC (KQ-Control vs KQ-NTZ)” value was -2.3874 and the “CEP19 Change (KQ-Control vs KQ-NTZ)” value was “DOWN”. For the same molecule, the “CEP19 logFC (KQ-Control vs KQ-NTZ)” value was -0.5995, the “CNTNAP3B Change (KQ-Control vs KQ-NTZ)” value was “DOWN” and the “CNTNAP3B logFC (KQ-Control vs KQ-NTZ)” value was -1.4339. The “COL4A6 Change (KQ-Control vs KQ-NTZ)” value was “DOWN”, the “COL4A6 logFC (KQ-Control vs KQ-NTZ)” value was -0.6049 and the “CSF3 Change (KQ-Control vs KQ-NTZ)” value was “DOWN”. For the same molecule, the “CSF3 logFC (KQ-Control vs KQ-NTZ)” value was -0.9191, the “CXCL5 Change (KQ-Control vs KQ-NTZ)” value was “DOWN” and the “CXCL5 logFC (KQ-Control vs KQ-NTZ)” value was -1.0464. The “DEPTOR Change (KQ-Control vs KQ-NTZ)” value was “DOWN”, the “DEPTOR logFC (KQ-Control vs KQ-NTZ)” value was -0.7982 and the “DMC1 Change (KQ-Control vs KQ-NTZ)” value was “DOWN”. For the same molecule, the “DMC1 logFC (KQ-Control vs KQ-NTZ)” value was -0.9749, the “DRP2 Change (KQ-Control vs KQ-NTZ)” value was “DOWN” and the “DRP2 logFC (KQ-Control vs KQ-NTZ)” value was -1.0796. For the same molecule, the “ECM2 Change (KQ-Control vs KQ-NTZ)” value was “DOWN”, the “ECM2 logFC (KQ-Control vs KQ-NTZ)” value was -0.755 and the “EFCAB6 Change (KQ-Control vs KQ-NTZ)” value was “DOWN”. For the same molecule, the “EFCAB6 logFC (KQ-Control vs KQ-NTZ)” value was -0.8325, the “FAM43A Change (KQ-Control vs KQ-NTZ)” value was “DOWN” and the “FAM43A logFC (KQ-Control vs KQ-NTZ)” value was -1.1246. The “FAM83D Change (KQ-Control vs KQ-NTZ)” value was “DOWN”, the “FAM83D logFC (KQ-Control vs KQ-NTZ)” value was -0.5981 and the “FAM186B Change (KQ-Control vs KQ-NTZ)” value was “DOWN”. For the same molecule, the “FAM186B logFC (KQ-Control vs KQ-NTZ)” value was -0.6856, the “FANCI Change (KQ-Control vs KQ-NTZ)” value was “DOWN” and the “FANCI logFC (KQ-Control vs KQ-NTZ)” value was -0.7453. For the same molecule, the “FANCL Change (KQ-Control vs KQ-NTZ)” value was “DOWN”, the “FANCL logFC (KQ-Control vs KQ-NTZ)” value was -0.6097 and the “FCGBP Change (KQ-Control vs KQ-NTZ)” value was “DOWN”. For the same molecule, the “FCGBP logFC (KQ-Control vs KQ-NTZ)” value was -2.5743, the “FLI1 Change (KQ-Control vs KQ-NTZ)” value was “DOWN” and the “FLI1 logFC (KQ-Control vs KQ-NTZ)” value was -0.8219. The “FLRT1 Change (KQ-Control vs KQ-NTZ)” value was “DOWN”, the “FLRT1 logFC (KQ-Control vs KQ-NTZ)” value was -0.8174 and the “FLT1 Change (KQ-Control vs KQ-NTZ)” value was “DOWN”. The “FLT1 logFC (KQ-Control vs KQ-NTZ)” value was -0.8, the “FOXI1 Change (KQ-Control vs KQ-NTZ)” value was “DOWN” and the “FOXI1 logFC (KQ-Control vs KQ-NTZ)” value was -1.9605. The “FOXP3 Change (KQ-Control vs KQ-NTZ)” value was “DOWN”, the “FOXP3 logFC (KQ-Control vs KQ-NTZ)” value was -1.1132 and the “FSD2 Change (KQ-Control vs KQ-NTZ)” value was “DOWN”. For the same molecule, the “FSD2 logFC (KQ-Control vs KQ-NTZ)” value was -1.2199, the “FZD4 Change (KQ-Control vs KQ-NTZ)” value was “DOWN” and the “FZD4 logFC (KQ-Control vs KQ-NTZ)” value was -1.1759. The “GBX2 Change (KQ-Control vs KQ-NTZ)” value was “DOWN”, the “GBX2 logFC (KQ-Control vs KQ-NTZ)” value was -0.9793 and the “GPR19 Change (KQ-Control vs KQ-NTZ)” value was “DOWN”. For the same molecule, the “GPR19 logFC (KQ-Control vs KQ-NTZ)” value was -0.6847, the “GRAMD2A Change (KQ-Control vs KQ-NTZ)” value was “DOWN” and the “GRAMD2A logFC (KQ-Control vs KQ-NTZ)” value was -1.0971. For the same molecule, the “H3C1 Change (KQ-Control vs KQ-NTZ)” value was “DOWN”, the “H3C1 logFC (KQ-Control vs KQ-NTZ)” value was -0.9324 and the “HAS3 Change (KQ-Control vs KQ-NTZ)” value was “DOWN”. For the same molecule, the “HAS3 logFC (KQ-Control vs KQ-NTZ)” value was -1.3005, the “HPSE2 Change (KQ-Control vs KQ-NTZ)” value was “DOWN” and the “HPSE2 logFC (KQ-Control vs KQ-NTZ)” value was -0.9315. The “HSD3B1 Change (KQ-Control vs KQ-NTZ)” value was “DOWN”, the “HSD3B1 logFC (KQ-Control vs KQ-NTZ)” value was -0.7148 and the “IGF2BP1 Change (KQ-Control vs KQ-NTZ)” value was “DOWN”. The “IGF2BP1 logFC (KQ-Control vs KQ-NTZ)” value was -0.8373, the “IGFBP4 Change (KQ-Control vs KQ-NTZ)” value was “DOWN” and the “IGFBP4 logFC (KQ-Control vs KQ-NTZ)” value was -1.0441. For the same molecule, the “IGSF23 Change (KQ-Control vs KQ-NTZ)” value was “DOWN” and the “IGSF23 logFC (KQ-Control vs KQ-NTZ)” value was -0.7201.
